In ChEMBL document CHEMBL5291721, “A preclinical secondary pharmacology resource illuminates target-adverse drug reaction associations of marketed drugs” (Nat Commun, 2023) one finds AC50 data, which are given here for 9 compounds.

Test [1] has as its target T1, Alpha-1A adrenergic receptor (Homo sapiens, UniProt P35348).
T1 sequence (P35348 whole entry): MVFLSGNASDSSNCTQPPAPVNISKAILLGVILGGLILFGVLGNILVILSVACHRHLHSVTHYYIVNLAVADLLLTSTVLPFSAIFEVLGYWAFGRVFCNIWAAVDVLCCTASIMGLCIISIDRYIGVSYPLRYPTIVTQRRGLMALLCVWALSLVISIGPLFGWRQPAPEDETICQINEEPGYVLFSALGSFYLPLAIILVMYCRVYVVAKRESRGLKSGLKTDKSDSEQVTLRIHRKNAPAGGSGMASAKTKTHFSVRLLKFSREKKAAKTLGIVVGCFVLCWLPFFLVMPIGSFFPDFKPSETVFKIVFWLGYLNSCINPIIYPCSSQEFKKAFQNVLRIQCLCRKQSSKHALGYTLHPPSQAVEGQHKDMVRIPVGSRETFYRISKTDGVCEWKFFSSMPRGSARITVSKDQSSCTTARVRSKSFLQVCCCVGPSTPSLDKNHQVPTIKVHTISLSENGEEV
The class given is functional, cell-based.

In test [2] the target is Prothrombin (Homo sapiens, UniProt P00734). The class given is functional.
The target in test [3] is T2, Alpha-2A adrenergic receptor (Homo sapiens, UniProt P08913).
T2 sequence (P08913 whole entry): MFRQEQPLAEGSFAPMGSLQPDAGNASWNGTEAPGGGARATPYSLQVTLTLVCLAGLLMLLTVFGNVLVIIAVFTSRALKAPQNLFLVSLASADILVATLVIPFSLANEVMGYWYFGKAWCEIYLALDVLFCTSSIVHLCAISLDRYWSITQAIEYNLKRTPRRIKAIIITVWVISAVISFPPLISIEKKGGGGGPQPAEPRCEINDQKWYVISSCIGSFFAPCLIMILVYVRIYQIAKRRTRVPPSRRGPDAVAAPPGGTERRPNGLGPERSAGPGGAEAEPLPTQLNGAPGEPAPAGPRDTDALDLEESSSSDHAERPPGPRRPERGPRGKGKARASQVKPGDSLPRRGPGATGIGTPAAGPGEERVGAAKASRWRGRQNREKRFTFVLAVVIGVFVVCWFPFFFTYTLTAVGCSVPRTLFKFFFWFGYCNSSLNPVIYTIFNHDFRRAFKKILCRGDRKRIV

The target of test [4] is T3, 5-hydroxytryptamine receptor 1A (Homo sapiens, UniProt P08908).
T3 sequence (P08908 whole entry): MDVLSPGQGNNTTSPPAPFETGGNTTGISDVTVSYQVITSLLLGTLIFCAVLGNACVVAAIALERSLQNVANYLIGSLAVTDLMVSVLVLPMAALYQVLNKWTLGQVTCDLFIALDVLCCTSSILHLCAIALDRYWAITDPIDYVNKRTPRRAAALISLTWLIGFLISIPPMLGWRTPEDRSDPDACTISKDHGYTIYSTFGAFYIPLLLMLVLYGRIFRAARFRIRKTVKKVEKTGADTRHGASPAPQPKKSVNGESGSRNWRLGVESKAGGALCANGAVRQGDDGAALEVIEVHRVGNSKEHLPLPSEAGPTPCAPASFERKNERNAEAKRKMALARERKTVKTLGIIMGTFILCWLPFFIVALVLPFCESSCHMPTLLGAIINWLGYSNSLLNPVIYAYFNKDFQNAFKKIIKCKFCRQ

Test [5] addresses T1, Alpha-1A adrenergic receptor. The class given is functional, cell-based. This is another data set of the same source.
Test [6] has as its target Acetylcholinesterase (Homo sapiens, UniProt P22303). It is filed as functional.
Test [7] has as its target T4, Thromboxane A2 receptor (Homo sapiens, UniProt P21731).
T4 sequence (P21731 whole entry): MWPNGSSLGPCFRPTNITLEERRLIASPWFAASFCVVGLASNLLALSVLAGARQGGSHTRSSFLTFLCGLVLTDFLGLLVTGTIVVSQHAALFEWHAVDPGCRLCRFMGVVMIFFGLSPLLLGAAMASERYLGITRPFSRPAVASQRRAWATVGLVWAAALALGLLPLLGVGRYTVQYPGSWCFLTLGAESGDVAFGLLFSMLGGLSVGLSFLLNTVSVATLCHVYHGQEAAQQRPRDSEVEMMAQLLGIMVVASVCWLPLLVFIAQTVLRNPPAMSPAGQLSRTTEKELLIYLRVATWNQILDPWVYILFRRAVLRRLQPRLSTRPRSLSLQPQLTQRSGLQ
The class given is functional, cell-based.

Test [8] has as its target 3',5'-cyclic-AMP phosphodiesterase 4A (Homo sapiens, UniProt P27815). The class given is functional.
Test [9] concerns the target T4, Thromboxane A2 receptor. It is filed as functional, cell-based. This is another data set of the same source.
In test [10] the target is T5, Muscarinic acetylcholine receptor M2 (Homo sapiens, UniProt P08172).
T5 sequence (P08172 whole entry): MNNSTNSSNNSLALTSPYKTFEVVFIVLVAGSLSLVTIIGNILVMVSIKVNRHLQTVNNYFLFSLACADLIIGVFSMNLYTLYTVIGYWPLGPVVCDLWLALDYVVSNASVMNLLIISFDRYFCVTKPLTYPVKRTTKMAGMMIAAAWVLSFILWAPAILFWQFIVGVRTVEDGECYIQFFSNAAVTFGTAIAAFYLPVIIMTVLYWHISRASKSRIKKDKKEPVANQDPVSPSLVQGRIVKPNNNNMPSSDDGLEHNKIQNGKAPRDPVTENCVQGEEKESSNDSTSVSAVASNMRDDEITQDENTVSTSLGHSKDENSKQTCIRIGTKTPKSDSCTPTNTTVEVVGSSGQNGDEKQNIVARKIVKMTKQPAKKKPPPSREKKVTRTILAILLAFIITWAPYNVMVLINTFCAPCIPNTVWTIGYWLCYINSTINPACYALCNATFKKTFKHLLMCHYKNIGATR

Test [11] deals with T6, Adenosine receptor A3 (Homo sapiens, UniProt P0DMS8).
T6 sequence (P0DMS8 whole entry): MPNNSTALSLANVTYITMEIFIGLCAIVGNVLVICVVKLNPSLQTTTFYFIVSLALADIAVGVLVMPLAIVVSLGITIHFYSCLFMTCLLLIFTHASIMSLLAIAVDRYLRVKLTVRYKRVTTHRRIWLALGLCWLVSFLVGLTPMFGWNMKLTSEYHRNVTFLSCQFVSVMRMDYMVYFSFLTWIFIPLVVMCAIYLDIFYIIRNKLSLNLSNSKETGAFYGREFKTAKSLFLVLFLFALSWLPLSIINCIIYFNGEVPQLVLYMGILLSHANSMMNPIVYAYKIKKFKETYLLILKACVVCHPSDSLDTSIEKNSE

For test [12], the target named is 5-hydroxytryptamine receptor 2B (Homo sapiens, UniProt P41595). The class given is functional, cell-based.
Test [13] deals with D(1A) dopamine receptor (Homo sapiens, UniProt P21728).
Further: assay procedure not described here.

Sequence of D(1A) dopamine receptor (P21728 whole entry): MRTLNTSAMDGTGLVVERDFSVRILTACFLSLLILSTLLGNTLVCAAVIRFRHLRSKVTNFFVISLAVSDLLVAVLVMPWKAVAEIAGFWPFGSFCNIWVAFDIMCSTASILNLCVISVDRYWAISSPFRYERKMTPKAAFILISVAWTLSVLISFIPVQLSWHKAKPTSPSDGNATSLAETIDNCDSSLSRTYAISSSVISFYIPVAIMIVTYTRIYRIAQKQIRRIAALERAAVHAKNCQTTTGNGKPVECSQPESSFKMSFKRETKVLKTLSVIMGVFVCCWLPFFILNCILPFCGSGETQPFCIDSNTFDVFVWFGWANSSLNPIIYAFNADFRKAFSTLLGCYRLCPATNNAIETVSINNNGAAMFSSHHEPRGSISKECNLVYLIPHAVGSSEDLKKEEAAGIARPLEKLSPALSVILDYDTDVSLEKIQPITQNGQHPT
Sequence of 3',5'-cyclic-AMP phosphodiesterase 4A (P27815 whole entry): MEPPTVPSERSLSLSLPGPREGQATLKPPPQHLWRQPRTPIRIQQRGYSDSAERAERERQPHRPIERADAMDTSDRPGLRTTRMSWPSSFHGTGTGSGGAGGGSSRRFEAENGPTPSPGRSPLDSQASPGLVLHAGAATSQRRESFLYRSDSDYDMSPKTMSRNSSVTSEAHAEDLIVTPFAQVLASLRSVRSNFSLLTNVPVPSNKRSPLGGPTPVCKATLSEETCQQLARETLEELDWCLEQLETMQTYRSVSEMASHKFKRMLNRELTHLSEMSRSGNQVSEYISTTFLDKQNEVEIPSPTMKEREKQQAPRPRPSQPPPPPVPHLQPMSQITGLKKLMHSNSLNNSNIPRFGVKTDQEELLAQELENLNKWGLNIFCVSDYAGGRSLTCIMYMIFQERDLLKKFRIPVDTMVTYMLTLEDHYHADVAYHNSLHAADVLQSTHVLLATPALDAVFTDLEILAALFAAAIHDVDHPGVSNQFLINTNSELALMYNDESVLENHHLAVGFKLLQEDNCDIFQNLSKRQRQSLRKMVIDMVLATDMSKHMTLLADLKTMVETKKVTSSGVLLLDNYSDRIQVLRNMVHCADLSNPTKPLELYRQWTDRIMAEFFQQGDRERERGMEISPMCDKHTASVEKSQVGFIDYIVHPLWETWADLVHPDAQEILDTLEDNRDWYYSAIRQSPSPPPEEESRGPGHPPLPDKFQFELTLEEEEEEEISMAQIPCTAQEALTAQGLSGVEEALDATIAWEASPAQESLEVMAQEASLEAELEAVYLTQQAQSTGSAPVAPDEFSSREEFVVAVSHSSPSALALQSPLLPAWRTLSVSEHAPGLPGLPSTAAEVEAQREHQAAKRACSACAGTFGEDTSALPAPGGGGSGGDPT
Sequence of 5-hydroxytryptamine receptor 2B (P41595 whole entry): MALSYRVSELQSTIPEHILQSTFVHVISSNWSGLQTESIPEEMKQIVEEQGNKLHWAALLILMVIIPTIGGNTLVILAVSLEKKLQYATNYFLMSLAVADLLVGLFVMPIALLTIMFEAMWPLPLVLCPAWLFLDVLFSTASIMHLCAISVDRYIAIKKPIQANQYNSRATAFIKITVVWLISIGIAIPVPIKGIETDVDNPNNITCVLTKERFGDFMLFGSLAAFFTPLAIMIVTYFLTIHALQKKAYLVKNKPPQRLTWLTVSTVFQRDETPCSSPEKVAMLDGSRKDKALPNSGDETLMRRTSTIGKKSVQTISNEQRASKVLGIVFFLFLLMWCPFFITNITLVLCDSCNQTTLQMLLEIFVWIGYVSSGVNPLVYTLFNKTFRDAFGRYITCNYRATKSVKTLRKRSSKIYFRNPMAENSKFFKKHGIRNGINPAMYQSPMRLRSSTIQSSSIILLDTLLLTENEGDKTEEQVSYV
Sequence of Acetylcholinesterase (P22303 whole entry): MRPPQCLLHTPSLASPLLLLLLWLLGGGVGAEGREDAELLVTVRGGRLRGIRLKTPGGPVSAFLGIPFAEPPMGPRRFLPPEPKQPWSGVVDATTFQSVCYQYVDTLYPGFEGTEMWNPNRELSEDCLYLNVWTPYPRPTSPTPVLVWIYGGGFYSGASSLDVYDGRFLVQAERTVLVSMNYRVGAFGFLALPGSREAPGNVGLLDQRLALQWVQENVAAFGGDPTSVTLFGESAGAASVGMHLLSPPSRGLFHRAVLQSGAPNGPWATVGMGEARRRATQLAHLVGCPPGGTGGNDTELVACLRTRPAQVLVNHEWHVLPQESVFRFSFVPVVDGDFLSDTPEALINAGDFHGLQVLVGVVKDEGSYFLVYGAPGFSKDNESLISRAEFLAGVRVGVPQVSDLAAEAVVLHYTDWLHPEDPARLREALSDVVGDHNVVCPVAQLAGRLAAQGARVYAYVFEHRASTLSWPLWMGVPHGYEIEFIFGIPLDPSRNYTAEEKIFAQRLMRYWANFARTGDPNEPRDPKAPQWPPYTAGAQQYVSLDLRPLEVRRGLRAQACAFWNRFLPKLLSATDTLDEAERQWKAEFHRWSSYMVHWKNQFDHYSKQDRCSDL

Broadly, the AC50 is the concentration giving half of the maximal activity seen. Lower therefore signals greater potency. Take `O=C(CCCN1CC=C(n2c(=O)[nH]c3ccccc32)CC1)c1ccc(F)cc1` [DROPERIDOL]: the AC50 in [1], in test [2], in [3], in test [4], in test [5] and in test [6] was > 30 µM in each case. Moreover, the AC50 in test [7], in test [8], in [9], in test [10], in test [11] and in [12] was > 30 µM each time. The AC50 in [13] was > 30 µM.
Regarding `CCn1cc(C(=O)O)c(=O)c2cc(F)c(N3CCNCC3)nc21` [ENOXACIN], the concentration at half-maximal activity (AC50) in test [1], in test [2], in test [3], in [4], in test [5] and in test [6] was > 30 µM throughout. The half-maximal activity concentration (AC50) in [7], in [8], in test [9], in [10], in [11] and in test [12] was > 30 µM in each case. For the same compound, the AC50 in test [13] is > 30 µM.
Take `C[C@@H](O)[C@H]1C(=O)N2C(C(=O)O)=C([C@H]3CCCO3)S[C@H]12` [FAROPENEM]: the AC50 in [1], in [2], in [3], in test [4], in [5] and in [6] was > 30 µM throughout. In addition, the AC50 in test [7], in test [8], in test [9], in test [10], in test [11] and in test [12] was > 30 µM throughout. In addition, in [13], the half-maximal activity concentration (AC50) was > 30 µM.
As to `CCOC(=O)c1ccc(OC(=O)CCCCCNC(=N)N)cc1` [GABEXATE], the half-maximal activity concentration (AC50) is > 30 µM in test [1]; 0.17 µM in test [2]; > 30 µM in [3]; > 30 µM in test [4]; > 30 µM in test [5]; > 30 µM in test [6]. The AC50 is > 30 µM in test [7]; > 30 µM in test [8]; > 30 µM in test [9]; 1.49 µM in test [10]; > 30 µM in test [11]; > 30 µM in test [12]. Further, in test [13], the concentration at half-maximal activity (AC50) is > 30 µM.
For the compound `CCCCC/C=C\C/C=C\C/C=C\CCCCC(=O)O` [GAMOLENIC ACID], the concentration at half-maximal activity (AC50) in [1], in test [2], in [3], in test [4], in test [5] and in test [6] was > 30 µM each time. Besides, the AC50 in [7], in [8], in test [9], in test [10], in test [11] and in test [12] was > 30 µM each time. Also, in test [13], the AC50 was > 30 µM.
As for `COCCOc1cnc(NS(=O)(=O)c2ccccc2)nc1` [GLYMIDINE], the concentration at half-maximal activity (AC50) in [1], in test [2], in test [3], in test [4], in test [5] and in [6] was > 30 µM in each case. The half-maximal activity concentration (AC50) in [7], in [8], in [9], in test [10], in [11] and in test [12] was > 30 µM each time. Further, the concentration at half-maximal activity (AC50) in [13] was > 30 µM.
For the compound `CC(N)CCCC(C)(C)O` (configuration not stated) [HEPTAMINOL], the AC50 in [1], in test [2], in test [3], in test [4], in test [5] and in test [6] was > 30 µM each time. For the same compound, the half-maximal activity concentration (AC50) in [7], in test [8], in [9], in test [10], in [11] and in test [12] was > 30 µM throughout. Moreover, the AC50 in test [13] was > 30 µM.
Regarding `CCC(=O)O[C@]1(C(=O)COC(C)=O)CC[C@H]2[C@@H]3CCC4=CC(=O)CC[C@]4(C)[C@H]3[C@@H](O)C[C@@]21C` [HYDROCORTISONE ACEPONATE], the AC50 in test [1], in [2], in test [3], in test [4], in [5] and in test [6] was > 30 µM in each case. Besides, the AC50 in test [7], in [8], in [9], in test [10], in test [11] and in [12] was > 30 µM each time. The concentration at half-maximal activity (AC50) in test [13] is > 30 µM.
Take `O=[N+]([O-])O[C@H]1CO[C@H]2[C@@H]1OC[C@H]2O[N+](=O)[O-]` [ISOSORBIDE DINITRATE]: the AC50 in test [1], in [2], in test [3], in test [4], in [5] and in [6] was > 30 µM throughout. Besides, the concentration at half-maximal activity (AC50) in [7], in test [8], in test [9], in test [10], in [11] and in test [12] was > 30 µM in each case. Moreover, the concentration at half-maximal activity (AC50) in [13] is > 30 µM.
